Assay results taken from patent publication US7618972B2, “Substituted triazole derivatives as oxytocin antagonists” (Pfizer Inc, priority 2005, dated 2009).

Target: T1, oxytocin receptor (CHO-OTR/NFAT-β-Lactamase cells) (Homo sapiens, UniProt P30559)
T1 construct: expressed in transfected cells; host or cells: CHO-OTR cell line, further transfected with the NFAT-β-lactamase reporter construct
T1 sequence (P30559 1-389): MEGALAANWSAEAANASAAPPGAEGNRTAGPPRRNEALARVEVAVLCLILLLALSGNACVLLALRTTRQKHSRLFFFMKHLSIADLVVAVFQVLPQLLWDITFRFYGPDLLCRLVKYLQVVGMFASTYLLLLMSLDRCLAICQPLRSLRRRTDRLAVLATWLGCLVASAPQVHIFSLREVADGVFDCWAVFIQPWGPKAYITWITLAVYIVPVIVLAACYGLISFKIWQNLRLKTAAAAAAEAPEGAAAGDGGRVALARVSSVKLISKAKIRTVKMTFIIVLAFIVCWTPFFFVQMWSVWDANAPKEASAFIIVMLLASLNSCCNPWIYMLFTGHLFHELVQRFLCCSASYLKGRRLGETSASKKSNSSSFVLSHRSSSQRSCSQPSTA
Assay: Oxytocin Receptor Beta-Lactamase Assay
Type: cell-based
Settings: oxytocin antagonist activity, n=3
Method: A suitable assay for determining the oxytocin antagonist activity of a compound is detailed herein below.
Oxytocin Receptor Beta-Lactamase Assay
Cells used are CHO-OTR/NFAT-β-Lactamase. The NFAT-β-lactamase expression construct was transfected into the CHO-OTR cell line and clonal populations were isolated via fluorescence activated cell sorting (FACS). An appropriate clone was selected to develop the assay. […]
Cells grown at 80-90% confluence were harvested and counted. […]
Preparation of 1 ml of 6× Loading Buffer with Enhanced Loading Protocol (this requires scale-up according to number of plates to be screened) • 12 μl of solution A (1 mM CCF4-AM in Dry DMSO) was added to 60 μl of solution B (100 mg/ml Pluronic-F127 in DMSO+0.1% Acetic Acid) and vortexed. • The resulting solution was added to […] of solution C (24% w/w PEG400, 18% TR40 v/v in water). • 75 μl of solution D was added (200 mM probenecid in 200 mM NaOH). • 10 μl of 6× Loading Buffer was added to all wells and incubated for 1.5 hrs-2 hrs at room temperature in the dark. • The plates were read using an LJL Analyst, Excitation 405 nm, Emission 450 nm and 530 nm, gain optimal, lagtime 0.40 μs integration, 4 flashes, bottom reading.

COc1ccc(-n2c(C)nnc2-c2cnc(-c3ccc(F)cc3Cl)cn2)cn1 [Example 1, 2-(2-Chloro-4-fluoro-phenyl)-5-[4-(6-methoxy-pyridin-3-yl)-5-methyl-4H-[1,2,4]triazol-3-yl]-pyrazine]
Ki: 5.4 nM
